Test results as given in ChEMBL document CHEMBL1128615, “Design, synthesis and evaluation of novel bismustard cross-linked lexitropsins” (1995).

What was measured:
[1] = tested on: Nucleic Acid; assay: Compound was evaluated for its ability of alkylation of DNA; format: nucleic-acid assay; settings: Bos taurus
[2] = tested on: Nucleic Acid; assay: Compound was evaluated for binding affinity to poly(dG-dC) polymer using ethidium displacement assay; format: nucleic-acid assay
[3] = tested on: Nucleic Acid; assay: Compound was evaluated for binding affinity to calf thymus DNA using ethidium displacement assay; format: nucleic-acid assay; settings: Bos taurus
[4] = tested on: Nucleic Acid; assay: Compound was evaluated for its binding affinity to homo poly(dA-dT) polymer using ethidium displacement assay; format: nucleic-acid assay
[5] = tested on: Nucleic Acid; assay: Compound was evaluated for binding affinity to homo poly(dA-dT) polymer using ethidium displacement assay; format: nucleic-acid assay
[6] = tested on: KB; assay: Compound was evaluated for cytotoxicity measured as TD50; format: functional; settings: Homo sapiens, read-out: TD50 (the source's name)
[7] = tested on: Nucleic Acid; assay: Compound was evaluated for binding affinity to alternating poly(dA)-poly(dT) polymer using ethidium displacement assay; format: nucleic-acid assay
[8] = tested on: Nucleic Acid; assay: Binding affinity to alternating poly(dA)-poly(dT) polymer using ethidium displacement assay; format: nucleic-acid assay; settings: Bos taurus

Row | SMILES | Alkylation [1] [%] | C50 [2] [µM] | Kb [2] [M⁻¹] | C50 [3] [µM] | Kb [3] [M⁻¹] | C50 [4] [µM] | Kb [5] [M⁻¹] | CC50 [6] [µM] | C50 [7] [µM] | Kb [8] [M⁻¹]
1 | CN(C)CCCNC(=O)c1cc(NC(=O)c2cc(NC(=O)c3ccc(N(CCCl)CCCl)cc3)cn2C)cn1C | 11 | 11 | 1.81e+06 | 5.1 | 1.07e+06 | 2.85 | 3.41e+06 | 5 | 0.199 | 6.06e+06
2 | CN(C)CCCNC(=O)c1cc(NC(=O)c2cc(NC(=O)c3ccc(N(CCCl)CCCl)cc3)cn2CCCCCCCCCn2cc(NC(=O)c3ccc(N(CCCl)CCCl)cc3)cc2C(=O)Nc2cc(C(=O)NCCCN(C)C)n(C)c2)cn1C | 6.7 | 1.97 | 1.04e+07 | 1.74 | 3.2e+06 | 1.3 |  | > 79.2 | 1.31 | 
3 | CN(C)CCCNC(=O)c1cc(NC(=O)c2cc(NC(=O)c3ccc(N(CCCl)CCCl)cc3)cn2CCCCCCCCCCn2cc(NC(=O)c3ccc(N(CCCl)CCCl)cc3)cc2C(=O)Nc2cc(C(=O)NCCCN(C)C)n(C)c2)cn1C | 7.3 | 1.96 | 1.04e+07 | 2.02 | 2.74e+06 | 1.78 |  | 44.2 | 1.1 | 
4 | CN(C)CCCNC(=O)c1cc(NC(=O)c2cc(NC(=O)c3ccc(N(CCCl)CCCl)cc3)cn2CCCCCCCCn2cc(NC(=O)c3ccc(N(CCCl)CCCl)cc3)cc2C(=O)Nc2cc(C(=O)NCCCN(C)C)n(C)c2)cn1C | 7.1 | 1.64 | 1.25e+07 | 1.02 | 5.6e+06 | 0.802 |  | > 79.2 | 0.535 | 
5 | CN(C)CCCNC(=O)c1cc(NC(=O)c2cc(NC(=O)c3ccc(N(CCCl)CCCl)cc3)cn2CCCCCCCCCCCCn2cc(NC(=O)c3ccc(N(CCCl)CCCl)cc3)cc2C(=O)Nc2cc(C(=O)NCCCN(C)C)n(C)c2)cn1C |  | 2.11 | 9.66e+06 | 3.17 | 1.73e+06 | 1.06 |  | 36.3 | 1.31 | 
6 | CN(C)CCCNC(=O)c1cc(NC(=O)c2cc(NC(=O)c3ccc(N(CCCl)CCCl)cc3)cn2CCCCCCCCCCCn2cc(NC(=O)c3ccc(N(CCCl)CCCl)cc3)cc2C(=O)Nc2cc(C(=O)NCCCN(C)C)n(C)c2)cn1C | 12 | 2.46 | 8.25e+06 | 1.63 | 3.42e+06 | 1.1 |  | 35.8 | 1.2 | 
